# Measured values from patent US20080009418A1, “Selective Inhibitors” (Alchemia LTD., priority 2004, published 2008).
# Experiments:
# [1] = molecular target: T1, Human κ-Opioid (KOP) (Homo sapiens, UniProt P41145); assay: Radioligand binding, human κ-opioid (KOP) membranes, filtration, [3H]-Diprenorphine; settings: compound at 10 μM, [3H]-Diprenorphine; for A2: inhibition of radioligand binding: filtration
# T1 construct: purchased Perkin Elmer Biosignal
# Procedure, shortened: (§1)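 Membranes from cloned human receptors were incubated with compound and radioligand for 1 hour at room temperature. Bound ligand was collected on 0.3% PEI-soaked filters, washed with cold 50 mM Tris-HCl pH 7.4, and counted by scintillation. Percent inhibition was computed against DMSO totals and reference-ligand nonspecific wells.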
# [2] = molecular target: T2, Human Melanocortin (MC3) (Homo sapiens, UniProt P41968); assay: Radioligand binding, human melanocortin MC3 membranes, FlashPlate, [125I]-NDP-αMSH; settings: compound at 10 μM, [125I]-NDP-αMSH; for A3: inhibition of radioligand binding: FlashPlate
# T2 construct: purchased Perkin Elmer Biosignal
# Procedure, shortened: (§2)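 Cloned human receptor membranes were coated onto FlashPlate wells and incubated with radioligand and compound (added from a 0.5 mM DMSO daughter plate) for 1 hour at room temperature in the dark. Scintillation counting gave percent inhibition, with DMSO defining total and reference ligand defining non-specific binding.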
# [3] = molecular target: T3, Human Melanocortin (MC4) (Homo sapiens, UniProt P32245); assay: Radioligand binding, human melanocortin MC4 membranes, FlashPlate, [125I]-NDP-αMSH; settings: compound at 10 μM, [125I]-NDP-αMSH; for A4: inhibition of radioligand binding: FlashPlate
# T3 construct: purchased Perkin Elmer Biosignal
# Procedure, shortened: as §2
# [4] = molecular target: T4, Human neuropeptide Y (NPY-Y1) (Homo sapiens, UniProt P25929); assay: Radioligand binding, human neuropeptide Y NPY-Y1 membranes, FlashPlate, [125I]-PYY; settings: compound at 10 μM, [125I]-PYY; for A9: inhibition of radioligand binding: FlashPlate
# T4 construct: purchased Perkin Elmer Biosignal
# T4 sequence (P25929 1-384): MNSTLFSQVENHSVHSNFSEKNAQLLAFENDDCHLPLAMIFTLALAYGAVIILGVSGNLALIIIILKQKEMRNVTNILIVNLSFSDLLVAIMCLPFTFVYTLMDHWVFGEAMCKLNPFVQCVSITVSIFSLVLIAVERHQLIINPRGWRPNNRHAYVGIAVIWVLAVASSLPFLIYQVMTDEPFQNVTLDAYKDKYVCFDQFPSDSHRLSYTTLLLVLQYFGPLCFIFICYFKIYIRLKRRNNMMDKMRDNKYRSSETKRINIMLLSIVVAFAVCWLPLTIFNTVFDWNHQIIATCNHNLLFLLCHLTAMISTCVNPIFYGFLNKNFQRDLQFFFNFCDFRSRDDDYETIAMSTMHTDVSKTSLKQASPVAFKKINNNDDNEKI
# Procedure, shortened: as §2
# [5] = molecular target: T5, Human melanocortin (MC5) (Homo sapiens, UniProt P33032); assay: Radioligand binding, human melanocortin MC5 membranes, FlashPlate, [125I]-NDP-αMSH; settings: compound at 10 μM, [125I]-NDP-αMSH; for A5: inhibition of radioligand binding: FlashPlate
# T5 construct: purchased Perkin Elmer Biosignal
# Procedure, shortened: as §2
# [6] = molecular target: T6, Human μ-opioid (MOP) (Homo sapiens, UniProt P35372); assay: Radioligand binding, human μ-opioid (MOP) membranes, FlashPlate, [3H]-Naloxone; settings: compound at 10 μM, [3H]-Naloxone; for A7: inhibition of radioligand binding: FlashPlate
# T6 construct: purchased Perkin Elmer Biosignal
# Procedure, shortened: as §2
# [7] = molecular target: T7, Human opioid (ORL1) (Homo sapiens, UniProt P41146); assay: Radioligand binding, human opioid ORL1 membranes, FlashPlate, [125I]-Nociceptin; settings: compound at 10 μM, [125I]-Nociceptin; for A10: inhibition of radioligand binding: FlashPlate
# T7 construct: purchased Perkin Elmer Biosignal
# Procedure, shortened: as §2
# [8] = molecular target: T8, Human neurokinin (NK1) (Homo sapiens, UniProt P25103); assay: Radioligand binding, human neurokinin NK1 membranes, filtration, [125I]-Substance P; settings: compound at 10 μM, [125I]-Substance P; for A8: inhibition of radioligand binding: filtration
# T8 construct: purchased Perkin Elmer Biosignal
# Procedure, shortened: as §1
# [9] = molecular target: T9, Human melanin-concentrating hormone (MCH1) (Homo sapiens, UniProt Q99705); assay: Radioligand binding, human melanin-concentrating hormone MCH1 membranes, FlashPlate, [125I]-S36057; settings: compound at 10 μM; for A6: inhibition of radioligand binding: [125I]-S36057, FlashPlate
# T9 construct: purchased Perkin Elmer Biosignal
# Procedure, shortened: as §2
# [10] = molecular target: T10, Human δ-opioid (DOP) (Homo sapiens, UniProt P41143); assay: Radioligand binding, human δ-opioid (DOP) membranes, FlashPlate, [3H]-Bremazocine; settings: compound at 10 μM, [3H]-Bremazocine; for A1: inhibition of radioligand binding: FlashPlate
# T10 construct: purchased Perkin Elmer Biosignal
# Procedure, shortened: as §2
# [11] = molecular target: T11, Mouse urotensin (mUR2) (Mus musculus, UniProt Q8VIH9); assay: Radioligand binding, mouse urotensin mUR2 membranes, FlashPlate, [125I]-Urotensin II; settings: compound at 10 μM, [125I]-Urotensin II; for A11: inhibition of radioligand binding: FlashPlate
# T11 construct: purchased Perkin Elmer Biosignal
# T11 sequence (Q8VIH9 1-385): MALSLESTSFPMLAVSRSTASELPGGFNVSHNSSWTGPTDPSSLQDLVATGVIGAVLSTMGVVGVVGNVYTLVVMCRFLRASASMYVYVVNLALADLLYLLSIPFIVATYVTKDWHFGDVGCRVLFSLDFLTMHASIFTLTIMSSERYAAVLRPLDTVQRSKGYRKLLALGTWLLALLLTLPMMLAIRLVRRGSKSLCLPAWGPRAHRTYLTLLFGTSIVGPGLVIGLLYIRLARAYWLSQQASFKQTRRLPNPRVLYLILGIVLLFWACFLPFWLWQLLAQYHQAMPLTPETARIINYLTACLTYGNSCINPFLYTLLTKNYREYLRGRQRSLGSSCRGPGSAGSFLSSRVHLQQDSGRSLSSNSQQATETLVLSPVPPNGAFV
# Procedure, shortened: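 Cloned mouse urotensin (mUR2) receptor membranes from Perkin Elmer Biosignal were immobilized in FlashPlate microplates using a proprietary coating. Each well got 19.5 μl buffer, then 0.5 μl of DMSO, reference ligand, or compound. Adding 5 μl of [125I]-Urotensin II, diluted to 5× final concentration in binding buffer, started binding. Plates were sealed with TopSeal-A and incubated 1 hour at room temperature in the dark. Wells were counted for 30 seconds each on a TopCount after a 60-second delay, and percentage inhibition was calculated.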
# T8 sequence (P25103 whole entry): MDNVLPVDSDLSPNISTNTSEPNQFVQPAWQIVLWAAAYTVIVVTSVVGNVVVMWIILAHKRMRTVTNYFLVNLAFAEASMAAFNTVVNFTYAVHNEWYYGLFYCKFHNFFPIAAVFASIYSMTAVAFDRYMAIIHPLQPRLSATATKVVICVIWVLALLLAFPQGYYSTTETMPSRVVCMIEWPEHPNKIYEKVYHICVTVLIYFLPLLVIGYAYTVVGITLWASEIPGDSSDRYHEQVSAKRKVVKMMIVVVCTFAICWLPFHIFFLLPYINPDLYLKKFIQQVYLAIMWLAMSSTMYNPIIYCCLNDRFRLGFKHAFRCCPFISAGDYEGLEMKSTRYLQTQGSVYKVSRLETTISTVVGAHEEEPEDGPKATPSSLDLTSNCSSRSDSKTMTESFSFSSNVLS
# T3 sequence (P32245 whole entry): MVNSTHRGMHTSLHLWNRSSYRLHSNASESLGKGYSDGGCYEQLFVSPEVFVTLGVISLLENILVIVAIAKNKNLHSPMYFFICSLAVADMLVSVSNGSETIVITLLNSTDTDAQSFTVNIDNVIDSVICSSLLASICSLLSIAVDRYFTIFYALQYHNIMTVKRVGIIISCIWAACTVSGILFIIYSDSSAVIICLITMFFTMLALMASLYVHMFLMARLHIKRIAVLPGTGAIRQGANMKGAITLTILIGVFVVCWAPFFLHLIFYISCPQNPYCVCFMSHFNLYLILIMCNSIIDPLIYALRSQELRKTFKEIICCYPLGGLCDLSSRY
# T7 sequence (P41146 whole entry): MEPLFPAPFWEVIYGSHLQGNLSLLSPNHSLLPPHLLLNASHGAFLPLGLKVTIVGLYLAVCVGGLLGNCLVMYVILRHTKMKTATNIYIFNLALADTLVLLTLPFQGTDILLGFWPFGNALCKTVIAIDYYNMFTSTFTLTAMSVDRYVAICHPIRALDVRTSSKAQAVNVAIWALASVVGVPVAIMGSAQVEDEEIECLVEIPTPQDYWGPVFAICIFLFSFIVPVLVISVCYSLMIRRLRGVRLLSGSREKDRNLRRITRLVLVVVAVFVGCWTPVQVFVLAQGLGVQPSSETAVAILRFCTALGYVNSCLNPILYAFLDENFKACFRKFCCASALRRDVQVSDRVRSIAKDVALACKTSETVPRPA
# T5 sequence (P33032 whole entry): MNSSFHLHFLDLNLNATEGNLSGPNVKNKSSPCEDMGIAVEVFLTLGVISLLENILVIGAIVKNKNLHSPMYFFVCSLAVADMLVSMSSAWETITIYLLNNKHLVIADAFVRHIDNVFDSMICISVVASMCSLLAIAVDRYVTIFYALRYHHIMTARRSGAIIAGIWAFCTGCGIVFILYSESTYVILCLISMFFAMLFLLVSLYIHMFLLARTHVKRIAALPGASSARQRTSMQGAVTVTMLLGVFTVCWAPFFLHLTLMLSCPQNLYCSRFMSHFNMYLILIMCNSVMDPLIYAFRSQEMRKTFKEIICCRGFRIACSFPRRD
# T6 sequence (P35372 whole entry): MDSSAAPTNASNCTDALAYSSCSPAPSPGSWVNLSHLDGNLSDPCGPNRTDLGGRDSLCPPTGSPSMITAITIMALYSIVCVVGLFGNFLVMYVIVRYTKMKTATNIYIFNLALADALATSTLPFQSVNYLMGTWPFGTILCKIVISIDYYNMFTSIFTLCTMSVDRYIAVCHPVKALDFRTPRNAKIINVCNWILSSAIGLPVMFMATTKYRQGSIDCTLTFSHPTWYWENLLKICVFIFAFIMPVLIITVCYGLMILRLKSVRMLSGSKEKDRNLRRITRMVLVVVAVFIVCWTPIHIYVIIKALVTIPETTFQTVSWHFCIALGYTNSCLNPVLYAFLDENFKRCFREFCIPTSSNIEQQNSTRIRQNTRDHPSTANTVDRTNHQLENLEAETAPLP
# T2 sequence (P41968 whole entry): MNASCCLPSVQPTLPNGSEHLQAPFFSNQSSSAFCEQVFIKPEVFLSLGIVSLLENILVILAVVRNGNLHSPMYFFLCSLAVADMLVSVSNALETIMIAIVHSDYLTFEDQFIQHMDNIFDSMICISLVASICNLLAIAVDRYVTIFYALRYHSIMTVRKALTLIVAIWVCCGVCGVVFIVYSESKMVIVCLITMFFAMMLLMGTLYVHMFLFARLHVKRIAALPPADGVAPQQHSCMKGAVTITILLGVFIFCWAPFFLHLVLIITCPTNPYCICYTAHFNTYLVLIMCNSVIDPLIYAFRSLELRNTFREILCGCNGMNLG
# T9 sequence (Q99705 whole entry): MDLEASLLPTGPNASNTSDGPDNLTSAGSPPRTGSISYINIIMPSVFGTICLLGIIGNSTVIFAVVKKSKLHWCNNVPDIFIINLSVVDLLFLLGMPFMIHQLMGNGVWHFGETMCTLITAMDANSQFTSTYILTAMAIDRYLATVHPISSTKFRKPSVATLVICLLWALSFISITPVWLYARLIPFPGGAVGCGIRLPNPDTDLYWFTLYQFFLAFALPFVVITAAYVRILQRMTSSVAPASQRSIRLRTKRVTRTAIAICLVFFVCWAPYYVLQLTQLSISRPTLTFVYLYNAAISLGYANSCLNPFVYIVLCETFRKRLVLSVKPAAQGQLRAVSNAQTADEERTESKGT
# T10 sequence (P41143 whole entry): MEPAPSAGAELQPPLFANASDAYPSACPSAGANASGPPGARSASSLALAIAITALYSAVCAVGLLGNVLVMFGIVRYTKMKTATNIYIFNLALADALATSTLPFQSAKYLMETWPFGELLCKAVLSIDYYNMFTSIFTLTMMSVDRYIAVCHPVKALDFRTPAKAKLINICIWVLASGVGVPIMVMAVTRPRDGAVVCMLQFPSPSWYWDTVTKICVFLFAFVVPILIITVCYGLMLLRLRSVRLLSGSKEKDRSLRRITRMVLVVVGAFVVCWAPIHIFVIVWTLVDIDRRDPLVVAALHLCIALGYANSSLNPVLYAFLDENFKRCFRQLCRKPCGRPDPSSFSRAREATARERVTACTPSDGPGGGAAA
# T1 sequence (P41145 whole entry): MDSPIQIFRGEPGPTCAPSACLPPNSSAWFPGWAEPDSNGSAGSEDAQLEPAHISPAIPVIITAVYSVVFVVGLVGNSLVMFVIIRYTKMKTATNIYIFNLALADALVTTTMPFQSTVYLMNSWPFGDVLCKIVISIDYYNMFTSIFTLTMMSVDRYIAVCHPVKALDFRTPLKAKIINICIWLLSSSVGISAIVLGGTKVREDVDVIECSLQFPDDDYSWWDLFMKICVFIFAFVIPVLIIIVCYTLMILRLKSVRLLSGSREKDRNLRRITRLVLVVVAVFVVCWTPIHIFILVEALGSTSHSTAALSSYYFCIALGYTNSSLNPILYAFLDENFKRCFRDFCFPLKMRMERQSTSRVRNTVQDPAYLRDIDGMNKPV
SMILES,"A2: inhibition of radioligand binding, human κ-opioid (KOP) [1]","A3: inhibition of radioligand binding, human melanocortin (MC3) [2]","A4: inhibition of radioligand binding, human melanocortin (MC4) [3]","A9: inhibition of radioligand binding, human neuropeptide Y (NPY-Y1) [4]","A5: inhibition of radioligand binding, human melanocortin (MC5) [5]","A7: inhibition of radioligand binding, human μ-opioid (MOP) [6]","A10: inhibition of radioligand binding, human opioid (ORL1) [7]","A8: inhibition of radioligand binding, human neurokinin (NK1) [8]","A6: inhibition of radioligand binding, human melanin-concentrating hormone (MCH1) ([9]; [125I]-S36057)","A1: inhibition of radioligand binding, human δ-opioid (DOP) [10]","A11: inhibition of radioligand binding, mouse urotensin (mUR2) [11]",A2: inhibition of radioligand binding [1],A3: inhibition of radioligand binding [2],A4: inhibition of radioligand binding [3],A9: inhibition of radioligand binding [4],A5: inhibition of radioligand binding [5],A7: inhibition of radioligand binding [6],A10: inhibition of radioligand binding [7],A8: inhibition of radioligand binding [8],A6: inhibition of radioligand binding [9],also measured
CO[C@H]1[C@H](O)[C@@H](COCc2ccc3ccccc3c2)OC(OCc2ccc(Cl)cc2)[C@@H]1NC(=O)C1CCN(C(=N)N)CC1 (stereo partly drawn) [compound 354],− (“−” indicates less than 50% inhibition at 10 μM),− (“−” indicates less than 50% inhibition at 10 μM),+ (“+” indicates greater than 50% inhibition at 10 μM),− (“−” indicates less than 50% inhibition at 10 μM),+ (“+” indicates greater than 50% inhibition at 10 μM),− (“−” indicates less than 50% inhibition at 10 μM),− (“−” indicates less than 50% inhibition at 10 μM),+ (“+” indicates greater than 50% inhibition at 10 μM),− (“−” indicates less than 50% inhibition at 10 μM),− (“−” indicates less than 50% inhibition at 10 μM),− (“−” indicates less than 50% inhibition at 10 μM),–,–,–,–,–,–,–,–,–,–
COC[C@H]1OC(OCc2cccc(O)c2)[C@H](NC(=O)CCNC(=N)N)[C@@H](OCc2ccc(Cl)cc2)[C@@H]1O (stereo partly drawn) [compound 145],–,–,–,–,–,–,–,–,–,–,–,–,–,–,–,–,–,–,–,–,"A2 radioligand binding, percentage inhibition [1]: − (“−” indicates less than 50% inhibition at 10 μM); A3 radioligand binding, percentage inhibition [2]: − (“−” indicates less than 50% inhibition at 10 μM); A4 radioligand binding, percentage inhibition [3]: − (“−” indicates less than 50% inhibition at 10 μM); A9 radioligand binding, percentage inhibition [4]: − (“−” indicates less than 50% inhibition at 10 μM); A5 radioligand binding, percentage inhibition [5]: − (“−” indicates less than 50% inhibition at 10 μM); A7 radioligand binding, percentage inhibition [6]: − (“−” indicates less than 50% inhibition at 10 μM); A10 radioligand binding, percentage inhibition [7]: − (“−” indicates less than 50% inhibition at 10 μM); A8 radioligand binding, percentage inhibition [8]: − (“−” indicates less than 50% inhibition at 10 μM); A6 radioligand binding, percentage inhibition ([9]; [125I]-S36057): + (“+” indicates greater than 50% inhibition at 10 μM); A1 radioligand binding, percentage inhibition [10]: − (“−” indicates less than 50% inhibition at 10 μM); A11 radioligand binding, percentage inhibition [11]: − (“−” indicates less than 50% inhibition at 10 μM)"
COCC1OC(OCc2ccc3ccccc3c2)C(NC(=O)CNC(=N)N)C(OCc2ccccc2)C1O (stereo not drawn) [compound 230],–,–,–,–,–,–,–,–,–,–,–,− (“−” indicates less than 50% inhibition at 10 μM),− (“−” indicates less than 50% inhibition at 10 μM),− (“−” indicates less than 50% inhibition at 10 μM),− (“−” indicates less than 50% inhibition at 10 μM),+ (“+” indicates greater than 50% inhibition at 10 μM),− (“−” indicates less than 50% inhibition at 10 μM),− (“−” indicates less than 50% inhibition at 10 μM),+ (“+” indicates greater than 50% inhibition at 10 μM),− (“−” indicates less than 50% inhibition at 10 μM),A1: inhibition of radioligand binding [10]: − (“−” indicates less than 50% inhibition at 10 μM); A11: inhibition of radioligand binding [11]: − (“−” indicates less than 50% inhibition at 10 μM)
N=C(N)NCC(=O)NC1COC(COCc2ccc3ccccc3c2)C(O)C1OCc1ccc(Cl)cc1 (stereo not drawn) [compound 540],− (“−” indicates less than 50% inhibition at 10 μM),− (“−” indicates less than 50% inhibition at 10 μM),+ (“+” indicates greater than 50% inhibition at 10 μM),− (“−” indicates less than 50% inhibition at 10 μM),− (“−” indicates less than 50% inhibition at 10 μM),− (“−” indicates less than 50% inhibition at 10 μM),− (“−” indicates less than 50% inhibition at 10 μM),+ (“+” indicates greater than 50% inhibition at 10 μM),− (“−” indicates less than 50% inhibition at 10 μM),− (“−” indicates less than 50% inhibition at 10 μM),− (“−” indicates less than 50% inhibition at 10 μM),–,–,–,–,–,–,–,–,–,–
COCC1OC(OCCc2ccccc2)C(NC(=O)CCCNC(=N)N)C(OCc2ccc(Cl)cc2)C1O (stereo not drawn) [compound 223],–,–,–,–,–,–,–,–,–,–,–,− (“−” indicates less than 50% inhibition at 10 μM),− (“−” indicates less than 50% inhibition at 10 μM),+ (“+” indicates greater than 50% inhibition at 10 μM),− (“−” indicates less than 50% inhibition at 10 μM),+ (“+” indicates greater than 50% inhibition at 10 μM),− (“−” indicates less than 50% inhibition at 10 μM),− (“−” indicates less than 50% inhibition at 10 μM),+ (“+” indicates greater than 50% inhibition at 10 μM),+ (“+” indicates greater than 50% inhibition at 10 μM),A1: inhibition of radioligand binding [10]: − (“−” indicates less than 50% inhibition at 10 μM); A11: inhibition of radioligand binding [11]: − (“−” indicates less than 50% inhibition at 10 μM)
CSC1OC(COCc2ccc(-c3ccccc3)cc2)C(O)C(OCc2ccc3ccccc3c2)C1NC(=O)CCCN (stereo not drawn) [compound 315],− (“−” indicates less than 50% inhibition at 10 μM),− (“−” indicates less than 50% inhibition at 10 μM),− (“−” indicates less than 50% inhibition at 10 μM),− (“−” indicates less than 50% inhibition at 10 μM),− (“−” indicates less than 50% inhibition at 10 μM),− (“−” indicates less than 50% inhibition at 10 μM),− (“−” indicates less than 50% inhibition at 10 μM),+ (“+” indicates greater than 50% inhibition at 10 μM),− (“−” indicates less than 50% inhibition at 10 μM),− (“−” indicates less than 50% inhibition at 10 μM),− (“−” indicates less than 50% inhibition at 10 μM),–,–,–,–,–,–,–,–,–,–
